Experiments:
[1] = system: melon's third leaf; assay: Chlorophyll fluorescence photosynthesis: electron transport rate (ETR) of melon's third leaf after foliar spraying; conditions: foliar spray, after 30 minutes of actinic light, mean ± SE, n=5
Experimental: In the following examples, a melon species Cucumis melo var. makuwa cv. Silver Light (Nongyou Seedling Co., Kaohsiung, Taiwan) is used as the test crop. Seeds of the test crop are stirred and rinsed in warm water at 65° C. for 20 minutes, then further stirred and rinsed with sterile water twice, each for 20 minutes, and then placed in a 25° C. incubator for germination for 48 hours. After the radicle has grown, the seedlings are sown in trays containing Sondermischung (perlite high) cultivating medium (Gramoflor, Germany). When the leaves are fully expanded, the seedlings are transplanted into 3.5-inch plastic pots (inner diameter: 9 cm) and continue planting. The melon plants are ready for following experiments when their first real leaves are fully expanded (the plant is about 7 days of age).
The compositions of 3% (w/v) glucose amended with 1% (w/v) an organic sulfide selected from allicin, dimethyl disulfide (DMDS), lipoic acid, methionine and taurine, with two hundred-fold and four hundred-fold dilution in water, are sprayed on the leaves of the melon seedlings, and the chlorophyll fluorescence photosynthesis of the third real leaf is investigated during the growing period of melons. […] The third real leaf of melon is clipped to measure the leaf chlorophyll fluorescence parameters. […]

[2] = system: Fusarium oxysporum f.sp. melonis; assay: Greenhouse pot test: disease severity of melon Fusarium wilt after foliar spraying and root-cut inoculation; assay type: in vivo; conditions: Example 1, FIG. 1: 3% (w/v) glucose + 1% (w/v) organic sulfide, 400-fold dilution, foliar spray at 7 and 14 days of age; 3 weeks after inoculation; untreated control 2.33±0.21; mean ± SE
Experimental: Preparation of the inoculation source of Fusarium oxysporum f.sp. melonis (FOM): the soil-borne pathogen FOM strain used in the example is isolated from diseased melon plants in Wufeng District, Taichung City (24°02′24.6 ″N 120°39′55.0 ″E). The single spores of the strain are independently cultured on potato dextrose agar (PDA; Difco®) medium plates in a 25° C. incubator with 12 hours of light exposure per day. The mycelial pieces of the FOM strain are inoculated into ½ potato dextrose broth (PDB) and incubated in shaking flasks for 14 days. After the incubation, the culture is filtered through a double-layer Miracloth (475855 Calbiochem, Merk Darmstadt, Germany) to obtain a spore suspension with a concentration of 10^5 spores/mL, which is ready to be used in the pathogenic infection of melon root.
At the 24 hours after the final spraying, the root of test melon plants is washed with water to remove the cultivating medium. […] After 3 weeks, the symptoms and severity of wilt disease in melon plants are observed and recorded. […]
The disease severity is calculated by the following formula, wherein si represents the severity of wilt disease; n; represents the number of plants with various severity, and N represents the total number of plants investigated.
Statistical Analysis. The results are analyzed using RStudio v.4.3.0 (R) software. […]

Row | SMILES | ETR (electron transport rate of PSII on third leaf of melon) ([1]; 200X dilution of 1% (w/v) organic sulfide with 3% (w/v) glucose) [μmol electrons m^−2 s^−1] | ETR (electron transport rate of PSII on third leaf of melon) ([1]; 400X dilution of 1% (w/v) organic sulfide with 3% (w/v) glucose) [μmol electrons m^−2 s^−1] | Disease severity of melon Fusarium wilt (scale 0-4) [2]
1 | CSSC [DMDS, dimethyl disulfide] | 110.24 ± 2.72 | 117.68 ± 3.83 | 1.83±0.25
2 | NCCS(=O)(=O)O [Taurine, 2-aminoethanesulfonic acid] |  |  | 2.00±0.18
